{
  "source": "PubChem BioAssay (NCI)",
  "test_in_all_cases": "inhibition of tumour cell growth, NCI panel, 384-well format",
  "key": {"HCT-116 colon": {"test_system": "HCT-116 colon"}, "NCI-H522 lung": {"test_system": "NCI-H522 lung"}, "U251 glioblastoma": {"test_system": "U251 glioblastoma"}, "KM12 colon": {"test_system": "KM12 colon"}, "A549 NSCLC": {"test_system": "A549 NSCLC"}, "786-0 renal": {"test_system": "786-0 renal"}, "SK-MEL-5 melanoma": {"test_system": "SK-MEL-5 melanoma"}, "SN12C renal": {"test_system": "SN12C renal"}, "SW-620 colon": {"test_system": "SW-620 colon"}, "BT-549 breast": {"test_system": "BT-549 breast"}, "SF-539 CNS": {"test_system": "SF-539 CNS"}, "NCI-H322M lung": {"test_system": "NCI-H322M lung"}, "HCC-2998 colon": {"test_system": "HCC-2998 colon"}, "SK-MEL-28 melanoma": {"test_system": "SK-MEL-28 melanoma"}, "SK-OV-3 ovarian": {"test_system": "SK-OV-3 ovarian"}, "SF-295 CNS": {"test_system": "SF-295 CNS"}, "HCT-15 colon": {"test_system": "HCT-15 colon"}, "HT29 colon": {"test_system": "HT29 colon"}, "CAKI-1 renal": {"test_system": "CAKI-1 renal"}, "UO-31 renal": {"test_system": "UO-31 renal"}, "NCI-H23 lung": {"test_system": "NCI-H23 lung"}, "RPMI-8226 leukemia": {"test_system": "RPMI-8226 leukemia"}, "HS 578T breast": {"test_system": "HS 578T breast"}, "UACC-62 melanoma": {"test_system": "UACC-62 melanoma"}, "MOLT-4 leukemia": {"test_system": "MOLT-4 leukemia"}, "OVCAR-8 ovarian": {"test_system": "OVCAR-8 ovarian"}, "NCI-H226 lung": {"test_system": "NCI-H226 lung"}, "OVCAR-4 ovarian": {"test_system": "OVCAR-4 ovarian"}},
  "note": "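At the GI50, growth is halved. TGI denotes the concentration required for complete inhibition of growth.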",
  "data": [
    {"smiles": "CC[C@@H](C)Nc1cc(C(=O)NC2CC3CCC(C2)N3c2ccc(C(=O)C3CC3)cn2)c(C)cc1C(N)=O", "note": "(some centres undefined)", "values": [
      {"measurement": "GI50", "setting": "HCT-116 colon", "value": 0.0368, "unit": "µM"},
      {"measurement": "TGI", "setting": "HCT-116 colon", "value": 14.9, "unit": "µM"},
      {"measurement": "GI50", "setting": "NCI-H522 lung", "value": 0.0194, "unit": "µM"},
      {"measurement": "TGI", "setting": "NCI-H522 lung", "value": 0.0463, "unit": "µM"},
      {"measurement": "GI50", "setting": "U251 glioblastoma", "value": 0.0232, "unit": "µM"},
      {"measurement": "TGI", "setting": "U251 glioblastoma", "value": 0.0656, "unit": "µM"},
      {"measurement": "GI50", "setting": "KM12 colon", "value": 0.0199, "unit": "µM"},
      {"measurement": "TGI", "setting": "KM12 colon", "value": 1.62, "unit": "µM"},
      {"measurement": "GI50", "setting": "A549 NSCLC", "value": "< 0.01", "unit": "µM"},
      {"measurement": "TGI", "setting": "A549 NSCLC", "value": 11.7, "unit": "µM"},
      {"measurement": "GI50", "setting": "786-0 renal", "value": 0.0332, "unit": "µM"},
      {"measurement": "TGI", "setting": "786-0 renal", "value": 11.7, "unit": "µM"},
      {"measurement": "GI50", "setting": "SK-MEL-5 melanoma", "value": 0.0197, "unit": "µM"},
      {"measurement": "TGI", "setting": "SK-MEL-5 melanoma", "value": 10.6, "unit": "µM"},
      {"measurement": "GI50", "setting": "SN12C renal", "value": 0.0248, "unit": "µM"},
      {"measurement": "TGI", "setting": "SN12C renal", "value": 0.0766, "unit": "µM"},
      {"measurement": "GI50", "setting": "SW-620 colon", "value": 0.0262, "unit": "µM"},
      {"measurement": "TGI", "setting": "SW-620 colon", "value": 0.0788, "unit": "µM"},
      {"measurement": "GI50", "setting": "BT-549 breast", "value": 0.0125, "unit": "µM"},
      {"measurement": "GI50", "setting": "SF-539 CNS", "value": 0.02, "unit": "µM"},
      {"measurement": "TGI", "setting": "SF-539 CNS", "value": 0.0511, "unit": "µM"},
      {"measurement": "GI50", "setting": "NCI-H322M lung", "value": 0.0275, "unit": "µM"},
      {"measurement": "TGI", "setting": "NCI-H322M lung", "value": 19.1, "unit": "µM"},
      {"measurement": "GI50", "setting": "HCC-2998 colon", "value": "< 0.01", "unit": "µM"},
      {"measurement": "TGI", "setting": "HCC-2998 colon", "value": 0.0396, "unit": "µM"},
      {"measurement": "GI50", "setting": "SK-MEL-28 melanoma", "value": 0.0437, "unit": "µM"},
      {"measurement": "TGI", "setting": "SK-MEL-28 melanoma", "value": 21.6, "unit": "µM"},
      {"measurement": "GI50", "setting": "SK-OV-3 ovarian", "value": 0.0249, "unit": "µM"},
      {"measurement": "TGI", "setting": "SK-OV-3 ovarian", "value": 15, "unit": "µM"},
      {"measurement": "GI50", "setting": "SF-295 CNS", "value": 0.0242, "unit": "µM"},
      {"measurement": "TGI", "setting": "SF-295 CNS", "value": 0.0653, "unit": "µM"},
      {"measurement": "GI50", "setting": "HCT-15 colon", "value": 0.0361, "unit": "µM"},
      {"measurement": "TGI", "setting": "HCT-15 colon", "value": 15, "unit": "µM"},
      {"measurement": "GI50", "setting": "HT29 colon", "value": "< 0.01", "unit": "µM"},
      {"measurement": "TGI", "setting": "HT29 colon", "value": 11.5, "unit": "µM"},
      {"measurement": "GI50", "setting": "CAKI-1 renal", "value": 0.0462, "unit": "µM"},
      {"measurement": "TGI", "setting": "CAKI-1 renal", "value": 19.2, "unit": "µM"},
      {"measurement": "GI50", "setting": "UO-31 renal", "value": 0.0428, "unit": "µM"},
      {"measurement": "TGI", "setting": "UO-31 renal", "value": 67.7, "unit": "µM"},
      {"measurement": "GI50", "setting": "NCI-H23 lung", "value": 0.0176, "unit": "µM"},
      {"measurement": "TGI", "setting": "NCI-H23 lung", "value": 0.0536, "unit": "µM"},
      {"measurement": "GI50", "setting": "RPMI-8226 leukemia", "value": 0.0251, "unit": "µM"},
      {"measurement": "TGI", "setting": "RPMI-8226 leukemia", "value": 0.0856, "unit": "µM"},
      {"measurement": "GI50", "setting": "HS 578T breast", "value": 0.0403, "unit": "µM"},
      {"measurement": "TGI", "setting": "HS 578T breast", "value": 0.236, "unit": "µM"},
      {"measurement": "GI50", "setting": "UACC-62 melanoma", "value": 0.0264, "unit": "µM"},
      {"measurement": "TGI", "setting": "UACC-62 melanoma", "value": 0.0811, "unit": "µM"},
      {"measurement": "GI50", "setting": "MOLT-4 leukemia", "value": "< 0.01", "unit": "µM"},
      {"measurement": "TGI", "setting": "MOLT-4 leukemia", "value": 0.0176, "unit": "µM"},
      {"measurement": "GI50", "setting": "OVCAR-8 ovarian", "value": 0.0206, "unit": "µM"},
      {"measurement": "TGI", "setting": "OVCAR-8 ovarian", "value": 0.0446, "unit": "µM"},
      {"measurement": "GI50", "setting": "NCI-H226 lung", "value": 0.0303, "unit": "µM"},
      {"measurement": "TGI", "setting": "NCI-H226 lung", "value": 0.171, "unit": "µM"},
      {"measurement": "GI50", "setting": "OVCAR-4 ovarian", "value": 6.75, "unit": "µM"}
    ]}
  ]
}
